{"source": "PubChem BioAssay AID1845228", "data": [{"settings": "pampa; 60.0 min; 50.0 µM", "units": {"Papp": "×10⁻⁶ cm/s"}, "values": [{"smiles": "COc1cc2nc(N3CCC(N4CCCCC4)CC3)nc(NC3CCCCCC3)c2cc1OC", "Papp": 116}, {"smiles": "CO/N=C(\\C(=O)N[C@@H]1C(=O)N2C(C(=O)O)=C(CSc3nc(C)c(CC(=O)O)s3)CS[C@H]12)c1csc(N)n1", "Papp": "< 1"}, {"smiles": "CC/C=C(\\C(=O)N[C@@H]1C(=O)N2C(C(=O)OCOC(=O)C(C)(C)C)=C(COC(N)=O)CS[C@H]12)c1csc(N)n1", "Papp": "< 1"}, {"smiles": "Cc1ccccc1CN1CCn2c(nn(CC3COc4ccccc4O3)c2=O)C1=O", "note": "(stereo unspecified)", "Papp": 57.7}, {"smiles": "C/C(=C(\\CCOC(=O)C(C)C)SS/C(CCOC(=O)C(C)C)=C(/C)N(C=O)Cc1cnc(C)nc1N)N(C=O)Cc1cnc(C)nc1N", "Papp": 3}, {"smiles": "N[C@@H](C(=O)N[C@@H]1C(=O)N2C(C(=O)O)=C(Cl)CC[C@H]12)c1ccccc1", "Papp": "< 1"}, {"smiles": "N=c1c2c(-c3ccccc3)c(-c3ccccc3)n(Cc3ccccc3)c2ncn1C1CCC(O)CC1", "note": "(stereo unspecified)", "Papp": 150}, {"smiles": "CCOc1ccc(-c2nn3ncccc3c2-c2ccc(S(C)(=O)=O)cc2)cc1", "Papp": 111}, {"smiles": "CCN(CC)CCNc1ccc2ncn3c4ccc(O)cc4c(=O)c1c23", "Papp": 17}, {"smiles": "CN(CCCCCCN(C)C(=O)Oc1ccc[n+](C)c1)C(=O)Oc1ccc[n+](C)c1", "Papp": "< 1"}, {"smiles": "Cc1ccc(-n2c(C)cc(-c3nnc4n3CCCCC4)c2C)cc1", "Papp": 192}, {"smiles": "CC#CC(=O)N1CCC[C@H]1c1nc(-c2ccc(C(=O)Nc3ccccn3)cc2)c2c(N)nccn12", "Papp": "< 1"}, {"smiles": "CC1NC(C(=O)O)Cc2c1[nH]c1ccccc21", "note": "(stereo unspecified)", "Papp": "< 1"}, {"smiles": "CC(=O)OC(C)OC(=O)C(C)c1ccc(-c2ccccc2)c(F)c1", "note": "(stereo unspecified)", "Papp": "> 300"}, {"smiles": "CC[n+]1c(-c2ccccc2)c2cc(N)ccc2c2ccc(N)cc21", "Papp": 2}, {"smiles": "N=c1c2c(-c3ccccc3)c(-c3ccccc3)n(Cc3ccccc3)c2ncn1CCCCCO", "Papp": 203}, {"smiles": "N=c1c2c(-c3ccccc3)c(-c3ccccc3)n(CCc3ccccc3)c2ncn1CCCO", "Papp": 66}, {"smiles": "O=C(Nc1ccc2[nH]c(=O)oc2c1)C(=O)N1CCC(Cc2ccc(F)cc2)CC1", "Papp": 207}, {"smiles": "Cc1ccnc(NC(c2cccc(O)c2)c2ccc3ccc(C)nc3c2O)c1", "note": "(stereo unspecified)", "Papp": 115}, {"smiles": "CCCCCCCCCC(=O)O[C@H]1CC[C@H]2[C@@H]3CCC4=CC(=O)CC[C@@H]4[C@H]3CC[C@]12C", "Papp": "< 1"}, {"smiles": "CC(Cc1ccc2c(c1)OCO2)NCC(O)c1ccc(O)c(O)c1", "note": "(stereo unspecified)", "Papp": 6}, {"smiles": "N=c1c2c(-c3ccccc3)cn(Cc3ccccc3)c2ncn1CCCCCO", "Papp": 89}, {"smiles": "COc1cc(Cc2cnc(N)nc2N)cc(OC)c1OC", "Papp": 14}, {"smiles": "CC#CCC(C)[C@H](O)/C=C/[C@@H]1[C@H]2c3cccc(CCCC(=O)O)c3O[C@H]2C[C@H]1O", "note": "(stereo partly specified)", "Papp": "< 1"}, {"smiles": "CCN1CCN(C(=O)N[C@@H](C(=O)N[C@]2(OC)C(=O)N3C(C(=O)O)=C(CSc4nnnn4C)CS[C@@H]32)[C@H](C)O)C(=O)C1=O", "Papp": "< 1"}, {"smiles": "CNC(=O)C1CCN(C(=O)c2ccc(-c3ncc4cnc(-c5ccccc5)cn34)cc2)CC1", "Papp": 12}, {"smiles": "N=c1c2c(-c3ccccc3)cn(Cc3ccccc3)c2ncn1C(CO)(CO)CO", "Papp": "> 300"}, {"smiles": "COc1ccc(-c2noc(CC(=O)O)c2-c2ccc(OC)cc2)cc1", "Papp": "< 1"}, {"smiles": "O=C1c2c(O)ccc(O)c2C(=O)c2c(NCCNCCO)ccc(NCCNCCO)c21", "Papp": 19}, {"smiles": "Nc1c2ccccc2nc2ccccc12", "Papp": 36}, {"smiles": "O=C(N/N=C/c1ccc(O)c(O)c1)c1cc2ccccc2cc1O", "Papp": 5}, {"smiles": "C[C@H](Nc1nc(N[C@H](C)C(F)(F)F)nc(-c2cccc(Cl)n2)n1)C(F)(F)F", "Papp": 122}, {"smiles": "NNC(=O)c1ccncc1", "Papp": 3}, {"smiles": "CN(C)CC1CCOC1(c1ccccc1)c1ccccc1", "note": "(stereo unspecified)", "Papp": 47}, {"smiles": "COc1ccc2c(c1)C(c1ccc(F)cc1)=C(CN1CCCC1)CO2", "Papp": 100}, {"smiles": "COc1cc(-c2nc(Cn3nnc(C(=O)Nc4cc(C)cc(C)c4)c3C)c(C)o2)cc(OC)c1OC", "Papp": 17}, {"smiles": "CC[C@@]1(O)C(=O)OCc2c1cc1n(c2=O)Cc2cc3ccccc3nc2-1", "Papp": 23}, {"smiles": "N=c1c2c(-c3ccccc3)c(-c3ccccc3)n(CCc3ccccc3)c2ncn1CCCCCO", "Papp": 183}, {"smiles": "NC(=O)OC[C@@H]1[C@H](NC(=O)/C(=N\\OCC(=O)O)c2csc(N)n2)C(=O)N1S(=O)(=O)O", "Papp": "< 1"}, {"smiles": "N=c1c2c(-c3ccccc3)c(-c3ccccc3)n(Cc3ccccc3)c2ncn1CCCCO", "Papp": 259}, {"smiles": "COCCN(C)Cc1ccc2nc3sc(C(=O)N(C)C4CCCCC4)cn3c2c1", "Papp": 79}, {"smiles": "NCCCNCCCCNC(=O)C(O)NC(=O)CCCCCCN=C(N)N", "note": "(stereo unspecified)", "Papp": 38}, {"smiles": "C=CCNC1=C2C[C@@H](C)C[C@H](OC)[C@H](O)[C@@H](C)/C=C(\\C)[C@H](OC(N)=O)[C@@H](OC)/C=C\\C=C(/C)C(=O)NC(=CC1=O)C2=O", "Papp": 73}, {"smiles": "CCN(CC)CCCN(c1ccccc1)C1Cc2ccccc2C1", "Papp": 125}, {"smiles": "COc1ccc(-c2c(Cl)ncn2-c2ccc(S(N)(=O)=O)cc2)cc1F", "Papp": 78}, {"smiles": "COc1ccccc1NC(=O)C1=C(C)Nc2c(C(=O)Nc3cccc(C)c3)cnn2C1c1ccccc1Cl", "note": "(stereo unspecified)", "Papp": 160}]}]}
